Experiments:
[1] = target: T1, BRD2(BD2) (Homo sapiens, UniProt P25440); experiment: Binding inhibition ability test for BRD2 protein (AlphaScreen, GST BRD2 / biotinylated acetyl histone H4 peptide); conditions: 100 nM GST BRD2, 100 nM biotinylated acetyl histone H4 (Lys5, 8, 12, 16) peptide, Alpha Screen
T1 construct: a mixture of 100 nM GST BRD2 (BD1, BD2, BD1+BD2) and 100 nM biotinylated acetyl histone H4
Description: To confirm a binding inhibitory effect of a quinizarin derivative of the present disclosure on a BRD2 protein among BET proteins, the following experiment was performed.
First, a compound was diluted in 1:5 subdilution in an assay buffer from a 10 mM stock in dimethyl sulfoxide (DMSO) in a white Optiplate.
Then, a mixture of 100 nM GST BRD2 (BD1, BD2, BD1+BD2) and 100 nM biotinylated acetyl histone H4 (Lys5, 8, 12, 16) peptides was added to the diluent, and then each sample was shaking-cultured in the dark at 300 rpm for 30 minutes at room temperature.
Thereafter, signals were measured with a PerkinElmer Envision HTS Multilabel Reader using a PerkinElmer Alpha Screen protocol.

[2] = system: HepG2 cells; experiment: Lipogenesis inhibition in palmitic acid-induced fatty liver HepG2 cells (Oil red O staining); type: cell-based, human; conditions: pretreated 1 μM to 10 μM, 100 μM palmitic acid 24 hours
Description: HepG2 cell lines, human liver epithelial cells, were incubated, pretreated with quinizarin and a substance of Example 2 (BBC0504) at concentrations of 1 μM to 10 μM, and treated with 100 μM palmitic acid (PA) for 24 hours to induce fatty liver at a cellular level. After 24 hours, the cells in each sample were immobilized for 1 hour with a phosphate-buffered salt solution containing 7% formaldehyde, washed with PBS, and stained with a 99% isopropanol solution containing 1% Oil red O for 10 minutes. The differentiation degree of adipocytes was measured by dissolving the stained Oil red O in isopropanol and measuring the absorbance at 510 nm.
Referring to FIG. 11, HepG2 cells, which are human liver epithelial cells, were treated with palmitic acid to induce fatty liver, and the ability to inhibit lipogenesis was confirmed at each concentration in Example 2.

[3] = system: FAS; experiment: Expression of liposynthesis factor FAS in palmitic acid-treated HepG2 cells (RT-PCR); type: cell-based, human; conditions: pretreated 1 μM to 10 μM, 100 μM palmitic acid 24 hours
Description: (§1) HepG2 cell lines, human liver epithelial cells, were incubated, pretreated with quinizarin and a substance of Example 2 (BBC0504) at concentrations of 1 μM to 10 μM, and treated with 100 μM palmitic acid (PA) for 24 hours to induce fatty liver at a cellular level. After 24 hours, the expression of lipogenesis-related genes SREBP-1 and FAS in cells in each sample was confirmed using RT-PCR. Each sample was added with a trizol reagent to extract total RNA, and the concentration was confirmed using a spectrophotometer. To synthesize cDNA for each gene, RT-PCR reaction was performed using primers targeting the SREBP-1 and FAS genes. β-actin was used as a control group, and after the reaction was completed, the detected cDNA product was confirmed by electrophoresis on a 1.0% agarose gel.
FIG. 14 illustrates a result of confirming FAS expression after treating fatty liver-induced cells with a quinizarin derivative at each concentration according to an embodiment of the present disclosure.

[4] = system: SREBP-1; experiment: Expression of liposynthesis factor SREBP-1 in palmitic acid-treated HepG2 cells (RT-PCR); type: cell-based, human; conditions: pretreated 1 μM to 10 μM, 100 μM palmitic acid 24 hours
Description: as §1
FIG. 13 illustrates a result of confirming SREBP-1 expression after treating fatty liver-induced cells for each concentration with a quinizarin derivative according to an embodiment of the present disclosure.

T1 sequence (P25440 344-453 limits assumed, species assumed): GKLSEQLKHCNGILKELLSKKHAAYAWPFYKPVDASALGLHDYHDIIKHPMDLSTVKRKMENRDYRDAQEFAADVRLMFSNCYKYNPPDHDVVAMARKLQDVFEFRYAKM

Row | Structure (SMILES) | IC50 [1] [µM] | lipogenesis amount (Oil red O absorbance at 510 nm) [2] | FAS gene expression [3] | SREBP-1 gene expression [4]
1 | O=C1c2ccccc2C(=O)c2c(O)c(-c3ccc(O)c(O)c3)cc(O)c21 [Example 1] | 1.74 | – | – | –
2 | O=C1c2ccc(-c3ccc(O)c(O)c3)cc2C(=O)c2c(O)ccc(O)c21 [Example 2] | 4.44 | reduced in a concentration-dependent manner | reduced depending on a concentration | reduced depending on a concentration
3 | O=C1c2ccccc2C(=O)c2c(O)cc(-c3ccc(O)c(O)c3)cc21 [Example 3] | 1.75 | – | – | –
4 | O=C1c2ccccc2C(=O)c2c(OC3COC3)ccc(O)c21 [Example 4] | 3.12 | – | – | –
5 | O=C1c2ccccc2C(=O)c2c3c(cc(O)c21)OCCO3 [Example 5] | 2.73 | – | – | –

Source: patent publication US20250019335A1, “NOVEL QUINIZARIN DERIVATIVE AND PREPARATION METHOD THEREOF” (BENOBIO CO., LTD., priority 2021, published 2025)
